Measurements published in ChEMBL document CHEMBL1201862, “PubChem BioAssay data set” (2004).
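Protocol summary: plate cells (96-well), add compound at 5 concentrations, incubate 48 h, interpolate endpoints linearly. The concentration for 50% growth inhibition is given as GI50.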 The source made the active and inactive calls. Cut-off read from the data, not from the text of the source: active = GI50 up to about 1.1 µM and inactive = higher.

Columns and labels:
Test in all cases: NCI tumour cell line growth inhibition, 48 h
KM12 = system: KM12
Malme-3M = system: Malme-3M
NCI-H23 = system: NCI-H23
SR = system: SR
ACHN = system: ACHN
UACC-62 = system: UACC-62
SF-268 = system: SF-268
OVCAR-3 = system: OVCAR-3
NCI-H226 = system: NCI-H226
SW-620 = system: SW-620
SK-MEL-5 = system: SK-MEL-5
HOP-92 = system: HOP-92
TK-10 = system: TK-10
SNB-19 = system: SNB-19
LOX IMVI = system: LOX IMVI
NCI-H460 = system: NCI-H460

O=C(O)c1cc2c3ccccc3nc-2c[nH]1
GI50 (KM12): > 100 µM (inactive)
GI50 (Malme-3M): > 100 µM (inactive)
GI50 (NCI-H23): > 100 µM (inactive)
GI50 (SR): > 100 µM (inactive)
GI50 (ACHN): > 100 µM (inactive)
GI50 (UACC-62): > 100 µM (inactive)
GI50 (SF-268): > 100 µM (inactive)
GI50 (OVCAR-3): > 100 µM (inactive)
GI50 (NCI-H226): > 100 µM (inactive)
GI50 (SW-620): > 100 µM (inactive)
GI50 (SK-MEL-5): > 100 µM (inactive)
GI50 (HOP-92): > 100 µM (inactive)
GI50 (TK-10): > 100 µM (inactive)
GI50 (SNB-19): > 100 µM (inactive)
GI50 (LOX IMVI): > 100 µM (inactive)
GI50 (NCI-H460): > 100 µM (inactive)

Cc1cc2c(cc1C)[n+]([O-])c(C(=O)CC(=O)C(=O)Nc1ccccc1C)c(C)[n+]2[O-]
GI50 (KM12): > 100 µM (inactive)
GI50 (Malme-3M): > 100 µM (inactive)
GI50 (NCI-H23): > 100 µM (inactive)
GI50 (SR): 38 µM (inactive)
GI50 (ACHN): > 100 µM (inactive)
GI50 (UACC-62): > 100 µM (inactive)
GI50 (SF-268): > 100 µM (inactive)
GI50 (OVCAR-3): > 100 µM (inactive)
GI50 (NCI-H226): > 100 µM (inactive)
GI50 (SW-620): > 100 µM (inactive)
GI50 (SK-MEL-5): > 100 µM (inactive)
GI50 (HOP-92): > 100 µM (inactive)
GI50 (TK-10): > 100 µM (inactive)
GI50 (SNB-19): > 100 µM (inactive)
GI50 (LOX IMVI): > 100 µM (inactive)
GI50 (NCI-H460): 80.5 µM (inactive)

CCOc1ccc(Nc2nc(C)c(C(=O)/C=C/c3ccc(Cl)cc3Cl)s2)cc1
GI50 (KM12): 18.3 µM (inactive)
GI50 (Malme-3M): 26.3 µM (inactive)
GI50 (NCI-H23): 22.6 µM (inactive)
GI50 (SR): 28.6 µM (inactive)
GI50 (ACHN): 27.4 µM (inactive)
GI50 (UACC-62): 24 µM (inactive)
GI50 (SF-268): 24.7 µM (inactive)
GI50 (OVCAR-3): 20.2 µM (inactive)
GI50 (NCI-H226): 18.2 µM (inactive)
GI50 (SW-620): 20.6 µM (inactive)
GI50 (SK-MEL-5): 20 µM (inactive)
GI50 (HOP-92): 30 µM (inactive)
GI50 (TK-10): 22.6 µM (inactive)
GI50 (SNB-19): 31.4 µM (inactive)
GI50 (LOX IMVI): 16.8 µM (inactive)
GI50 (NCI-H460): 21.4 µM (inactive)

N#C/C(=C/c1ccsc1)C(=O)c1ccccc1
GI50 (KM12): > 100 µM (inactive)
GI50 (Malme-3M): > 100 µM (inactive)
GI50 (NCI-H23): > 100 µM (inactive)
GI50 (SR): > 100 µM (inactive)
GI50 (ACHN): > 100 µM (inactive)
GI50 (UACC-62): > 100 µM (inactive)
GI50 (SF-268): > 100 µM (inactive)
GI50 (OVCAR-3): > 100 µM (inactive)
GI50 (NCI-H226): > 100 µM (inactive)
GI50 (SW-620): > 100 µM (inactive)
GI50 (SK-MEL-5): > 100 µM (inactive)
GI50 (HOP-92): > 100 µM (inactive)
GI50 (TK-10): > 100 µM (inactive)
GI50 (SNB-19): > 100 µM (inactive)
GI50 (LOX IMVI): > 100 µM (inactive)
GI50 (NCI-H460): > 100 µM (inactive)

COC(=O)C1=C(C(=O)OC)C2(C(=O)OC)OC1(OC)C(C1(C(=O)OC)C(C(=O)OC)=C1C(=O)OC)=C2C(=O)OC (configuration not stated)
GI50 (KM12): > 100 µM (inactive)
GI50 (Malme-3M): > 100 µM (inactive)
GI50 (NCI-H23): > 100 µM (inactive)
GI50 (SR): > 100 µM (inactive)
GI50 (ACHN): > 100 µM (inactive)
GI50 (UACC-62): > 100 µM (inactive)
GI50 (SF-268): > 100 µM (inactive)
GI50 (OVCAR-3): > 100 µM (inactive)
GI50 (NCI-H226): > 100 µM (inactive)
GI50 (SW-620): > 100 µM (inactive)
GI50 (SK-MEL-5): > 100 µM (inactive)
GI50 (HOP-92): > 100 µM (inactive)
GI50 (TK-10): > 100 µM (inactive)
GI50 (SNB-19): > 100 µM (inactive)
GI50 (LOX IMVI): > 100 µM (inactive)
GI50 (NCI-H460): > 100 µM (inactive)

CC(C)(C)OC(=O)NCCc1cccc2c1oc1c(CCC(=O)O)cccc12
GI50 (KM12): > 100 µM (inactive)
GI50 (Malme-3M): > 100 µM (inactive)
GI50 (NCI-H23): > 100 µM (inactive)
GI50 (SR): > 100 µM (inactive)
GI50 (ACHN): > 100 µM (inactive)
GI50 (UACC-62): > 100 µM (inactive)
GI50 (SF-268): > 100 µM (inactive)
GI50 (OVCAR-3): 50.7 µM (inactive)
GI50 (NCI-H226): > 100 µM (inactive)
GI50 (SW-620): > 100 µM (inactive)
GI50 (SK-MEL-5): > 100 µM (inactive)
GI50 (HOP-92): > 100 µM (inactive)
GI50 (TK-10): > 100 µM (inactive)
GI50 (SNB-19): > 100 µM (inactive)
GI50 (LOX IMVI): > 100 µM (inactive)
GI50 (NCI-H460): > 100 µM (inactive)

CN(C)c1cccc(-c2cc(O)c3cc4c(cc3n2)OCO4)c1
GI50 (KM12): 0.0456 µM (active)
GI50 (Malme-3M): 0.131 µM (active)
GI50 (NCI-H23): 0.326 µM (active)
GI50 (SR): 0.708 µM (active)
GI50 (ACHN): 0.378 µM (active)
GI50 (UACC-62): 0.136 µM (active)
GI50 (SF-268): 0.327 µM (active)
GI50 (OVCAR-3): 0.0807 µM (active)
GI50 (NCI-H226): 0.315 µM (active)
GI50 (SW-620): 0.124 µM (active)
GI50 (SK-MEL-5): 0.0776 µM (active)
GI50 (HOP-92): 2.15 µM (inactive)
GI50 (TK-10): 1.83 µM (inactive)
GI50 (SNB-19): 0.365 µM (active)
GI50 (LOX IMVI): 0.192 µM (active)
GI50 (NCI-H460): 0.278 µM (active)
